Columns and labels:
[1] = Inhibition of Dictyostelium discoideum myosin 2 motor domain-activated ATPase activity by spectrophotometry based PK/LDH coupled ATPase assay
Unconventional myosin-Va = Unconventional myosin-Va (Gallus gallus, UniProt Q02440); assay: Inhibition of chicken myosin 5a assessed as ATP hydrolysis
[2] = Inhibition of Dictyostelium discoideum myosin 1b ATPase activity by spectrophotometric analysis

Chain of Unconventional myosin-Va (Q02440 whole entry): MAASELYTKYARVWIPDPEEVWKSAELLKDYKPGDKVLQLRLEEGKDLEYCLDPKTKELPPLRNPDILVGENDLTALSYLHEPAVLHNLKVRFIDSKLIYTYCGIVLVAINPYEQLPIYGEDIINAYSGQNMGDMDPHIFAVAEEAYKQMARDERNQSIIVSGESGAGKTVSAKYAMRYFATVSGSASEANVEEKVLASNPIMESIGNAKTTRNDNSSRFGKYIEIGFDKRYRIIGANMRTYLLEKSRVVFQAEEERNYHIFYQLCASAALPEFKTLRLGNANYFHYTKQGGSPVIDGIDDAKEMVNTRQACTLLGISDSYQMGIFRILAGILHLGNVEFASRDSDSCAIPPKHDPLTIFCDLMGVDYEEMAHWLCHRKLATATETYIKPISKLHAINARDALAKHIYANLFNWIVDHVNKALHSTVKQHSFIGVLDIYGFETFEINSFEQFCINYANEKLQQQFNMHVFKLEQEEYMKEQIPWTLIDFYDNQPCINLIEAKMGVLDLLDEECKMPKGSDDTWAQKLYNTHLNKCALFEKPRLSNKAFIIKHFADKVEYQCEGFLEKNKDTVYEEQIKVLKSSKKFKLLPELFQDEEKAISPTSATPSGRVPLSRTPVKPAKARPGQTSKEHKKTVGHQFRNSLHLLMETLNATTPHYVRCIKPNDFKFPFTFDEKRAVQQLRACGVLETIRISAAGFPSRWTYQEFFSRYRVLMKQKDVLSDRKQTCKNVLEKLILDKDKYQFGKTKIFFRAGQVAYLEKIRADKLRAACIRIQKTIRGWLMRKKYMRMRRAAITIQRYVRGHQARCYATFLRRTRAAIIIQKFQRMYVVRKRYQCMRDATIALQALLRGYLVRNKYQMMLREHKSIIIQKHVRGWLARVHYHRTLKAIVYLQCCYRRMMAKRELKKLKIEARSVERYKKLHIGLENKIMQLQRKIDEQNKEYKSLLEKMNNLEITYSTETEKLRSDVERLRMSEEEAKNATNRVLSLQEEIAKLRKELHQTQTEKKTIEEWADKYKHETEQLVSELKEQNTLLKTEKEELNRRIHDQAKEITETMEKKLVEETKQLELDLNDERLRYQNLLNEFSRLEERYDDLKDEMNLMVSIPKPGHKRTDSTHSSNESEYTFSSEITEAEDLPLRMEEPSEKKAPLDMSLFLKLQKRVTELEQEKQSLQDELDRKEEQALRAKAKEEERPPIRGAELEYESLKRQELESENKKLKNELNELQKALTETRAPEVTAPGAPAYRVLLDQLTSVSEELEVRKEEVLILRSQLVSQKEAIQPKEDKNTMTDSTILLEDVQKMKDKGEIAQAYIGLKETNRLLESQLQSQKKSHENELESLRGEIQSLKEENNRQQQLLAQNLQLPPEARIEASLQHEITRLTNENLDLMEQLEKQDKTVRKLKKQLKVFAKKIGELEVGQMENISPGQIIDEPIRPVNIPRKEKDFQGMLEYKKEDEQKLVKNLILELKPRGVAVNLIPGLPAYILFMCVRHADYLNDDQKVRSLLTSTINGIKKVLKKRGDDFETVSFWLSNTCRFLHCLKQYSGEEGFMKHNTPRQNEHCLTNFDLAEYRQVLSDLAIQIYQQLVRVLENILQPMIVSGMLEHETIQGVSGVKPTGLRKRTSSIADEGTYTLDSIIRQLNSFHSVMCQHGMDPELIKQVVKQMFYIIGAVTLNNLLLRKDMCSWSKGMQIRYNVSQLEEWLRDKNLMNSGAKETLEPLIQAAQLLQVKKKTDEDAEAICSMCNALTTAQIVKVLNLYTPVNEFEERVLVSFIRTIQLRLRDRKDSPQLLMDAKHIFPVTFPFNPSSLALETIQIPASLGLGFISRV

SMILES | IC50 [1] [µM] | IC50 (Unconventional myosin-Va) [µM] | IC50 [2] [µM]
COc1ccccc1-c1ccc[nH]1 | > 1000 |  | 
Oc1c(Br)cc(Br)cc1-c1[nH]c(Br)c(Br)c1Br [PENTABROMOPSEUDILIN] | 24.4 | 1.2 | 
Oc1c(Cl)cc(Cl)cc1-c1[nH]c(Cl)c(Cl)c1Cl [PENTACHLOROPSEUDILIN] | 126 |  | 1

More lines, main results first:

IC50 [1] [µM] | SMILES | IC50 (Unconventional myosin-Va) [µM] | IC50 [2] [µM]
274 | COc1c(Cl)cc(Cl)cc1-c1[nH]c(Cl)c(Cl)c1Cl |  | 
> 1000 | Oc1ccccc1-c1ccc[nH]1 |  | 
182 | COc1ccccc1-c1[nH]c(Br)c(Br)c1Br |  | 
125 | Cn1c(Br)c(Br)c(Br)c1-c1cc(Br)cc(Br)c1O |  | 
91.9 | COc1c(Br)cc(Br)cc1-c1[nH]c(Br)c(Br)c1Br |  | 

From ChEMBL document CHEMBL1781890, “Inhibition of Myosin ATPase activity by halogenated pseudilins: a structure-activity study” (J Med Chem, 2011)
